From ChEMBL document CHEMBL1150605, “Isolation of a new mycalolide from the marine sponge Mycale izuensis” (J Nat Prod, 2002) come the findings set out here.

≈ marks a conversion by molar mass, not a printed value.

This test deals with HeLa. Nature of the test: Cytotoxicity against human HeLa cells. The format is functional, cell-based.

A word on the IC50: it is the concentration at which inhibition is half-maximal. The compound `CO[C@H]1C/C=C/c2nc(co2)-c2nc(co2)-c2nc(co2)[C@@H](OC)[C@@H](C)C(=O)/C=C/C[C@H](O)CC(=O)O[C@@H](C[C@H](OC)[C@@H](C)CC[C@@H](O)[C@@H](C)[C@H](O)[C@H](C)/C=C/N(C)C=O)[C@@H]1C` [30,32-DIHYDROXYMYCALOLIDE A] came in with an IC50 of 2.6 ng/mL (≈ 2.99 nM).
